Publication PMC2566858 (Nucleic Acids Research, 2008)

How the values were obtained:
rGyr_fl = rGyr_fl (Thermotoga maritima, UniProt O51934, K106Q/Y851F); assay: biochemical
rGyr_hel [1] = biological target: rGyr_hel (Thermotoga maritima, UniProt O51934, K106Q); assay: biochemical
rGyr_hel [2] = biological target: T1, rGyr_hel (Thermotoga maritima, UniProt O51934); assay: fluorescence equilibrium titration; type: binding
T1 sequence (O51934 59-541): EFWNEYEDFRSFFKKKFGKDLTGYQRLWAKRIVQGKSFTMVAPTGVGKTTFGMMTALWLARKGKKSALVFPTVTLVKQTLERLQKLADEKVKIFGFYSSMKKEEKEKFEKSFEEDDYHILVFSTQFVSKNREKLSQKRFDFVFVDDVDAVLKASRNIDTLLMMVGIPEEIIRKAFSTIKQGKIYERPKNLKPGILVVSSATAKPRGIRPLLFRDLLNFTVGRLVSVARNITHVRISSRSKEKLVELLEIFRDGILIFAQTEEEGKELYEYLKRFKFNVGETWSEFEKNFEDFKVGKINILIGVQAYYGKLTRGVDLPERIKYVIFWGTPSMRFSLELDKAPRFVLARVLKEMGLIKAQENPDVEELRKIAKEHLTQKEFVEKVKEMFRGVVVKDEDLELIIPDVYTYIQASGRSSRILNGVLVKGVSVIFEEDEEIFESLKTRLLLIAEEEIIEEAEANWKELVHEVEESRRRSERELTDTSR

Chain of rGyr_fl (O51934 whole entry K106Q/Y851F): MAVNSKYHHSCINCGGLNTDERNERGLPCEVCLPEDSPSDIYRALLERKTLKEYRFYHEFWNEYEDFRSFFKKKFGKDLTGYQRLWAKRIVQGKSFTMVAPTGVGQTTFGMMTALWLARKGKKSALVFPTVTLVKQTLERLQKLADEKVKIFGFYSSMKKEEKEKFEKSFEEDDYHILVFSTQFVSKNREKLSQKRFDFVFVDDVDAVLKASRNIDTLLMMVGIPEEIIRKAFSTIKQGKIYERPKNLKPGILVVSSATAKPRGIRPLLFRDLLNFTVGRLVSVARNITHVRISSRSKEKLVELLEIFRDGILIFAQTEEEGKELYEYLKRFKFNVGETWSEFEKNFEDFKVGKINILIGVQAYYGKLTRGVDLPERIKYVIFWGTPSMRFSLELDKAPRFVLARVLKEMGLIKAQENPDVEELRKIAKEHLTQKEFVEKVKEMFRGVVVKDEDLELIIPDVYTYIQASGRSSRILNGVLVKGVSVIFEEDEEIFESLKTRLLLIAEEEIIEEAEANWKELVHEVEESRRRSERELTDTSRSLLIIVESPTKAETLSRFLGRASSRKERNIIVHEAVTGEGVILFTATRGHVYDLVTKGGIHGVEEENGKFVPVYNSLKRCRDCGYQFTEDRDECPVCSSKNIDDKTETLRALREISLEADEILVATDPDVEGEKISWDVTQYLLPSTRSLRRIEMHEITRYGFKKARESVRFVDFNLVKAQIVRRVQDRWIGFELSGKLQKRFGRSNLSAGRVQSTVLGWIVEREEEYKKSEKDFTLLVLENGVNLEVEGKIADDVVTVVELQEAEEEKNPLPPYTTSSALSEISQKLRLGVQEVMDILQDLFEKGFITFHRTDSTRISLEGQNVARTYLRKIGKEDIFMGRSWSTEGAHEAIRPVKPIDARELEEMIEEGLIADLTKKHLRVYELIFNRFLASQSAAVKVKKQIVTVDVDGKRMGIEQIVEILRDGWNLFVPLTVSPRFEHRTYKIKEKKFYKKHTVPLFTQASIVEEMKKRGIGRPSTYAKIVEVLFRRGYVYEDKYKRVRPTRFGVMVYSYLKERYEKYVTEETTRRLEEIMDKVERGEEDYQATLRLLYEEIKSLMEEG
Chain of rGyr_hel (Thermotoga maritima, UniProt O51934, K106Q) (O51934 59-541 K106Q): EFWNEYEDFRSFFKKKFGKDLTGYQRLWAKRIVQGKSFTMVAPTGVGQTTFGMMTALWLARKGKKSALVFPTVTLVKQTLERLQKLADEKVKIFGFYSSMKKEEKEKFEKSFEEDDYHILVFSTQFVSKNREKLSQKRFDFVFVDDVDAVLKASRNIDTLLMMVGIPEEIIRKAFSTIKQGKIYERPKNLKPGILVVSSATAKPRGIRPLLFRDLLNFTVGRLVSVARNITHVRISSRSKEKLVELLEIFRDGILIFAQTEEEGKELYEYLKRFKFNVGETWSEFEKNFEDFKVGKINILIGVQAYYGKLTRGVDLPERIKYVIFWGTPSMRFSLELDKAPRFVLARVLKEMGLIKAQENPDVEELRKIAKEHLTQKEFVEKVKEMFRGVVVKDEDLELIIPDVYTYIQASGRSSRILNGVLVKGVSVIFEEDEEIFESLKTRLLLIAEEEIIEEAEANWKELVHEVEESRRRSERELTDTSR

| Compound | Kd (rGyr_fl) [µM] | Kd (rGyr_hel [1]) [µM] | Kd (rGyr_hel [2]) [µM] |
| --- | --- | --- | --- |
| Nc1ncnc2c1ncn2[C@@H]1O[C@H](COP(=O)(O)OP(=O)(O)OP(=O)(O)O)[C@@H](O)[C@H]1O [ATP] | 98 ± 12 | 570 ± 300 | – |
| Nc1ncnc2c1ncn2[C@@H]1O[C@H](COP(=O)(O)OP(=O)(O)O)[C@@H](O)[C@H]1O [ADP] | 36 ± 5 | 150 ± 85 | – |
| Nc1ncnc2c1ncn2[C@@H]1O[C@H](COP(=O)(O)O)[C@@H](O)[C@H]1O [AMP] | – | – | 1600 ± 231 |
